Measured values taken from PubChem BioAssay AID330 (DTP/NCI, 2004).
Where “and” joins values, the source holds several entries; their conditions need not be identical. Equal values may be shown once. Inconclusive results and toxic doses are left out.

System: P388 leukemia ip, CD2F1 mice, survival T/C
Test: NCI In Vivo Anticancer Drug Screen. Data for tumor model P388 Leukemia (intraperitoneal) in CD2F1 (CDF1) mice
Details: endpoint: median survival time, higher = longer survival
Procedure, shortened: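 Mice carrying the transplanted tumor received test compound or vehicle. Survival was recorded in each group, and the value is the treated-group measurement divided by that of the vehicle-treated control group.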

[1] = dose: 50.0 mg/kg/injection, schedule: Q01DX009 (ip), vehicle: Klucel (hydroxypropylcellulose) (HPC)
[2] = dose: 100.0 mg/kg/injection, schedule: Q01DX009 (ip), vehicle: Klucel (hydroxypropylcellulose) (HPC)
[3] = dose: 200.0 mg/kg/injection, schedule: Q01DX009 (ip), vehicle: Klucel (hydroxypropylcellulose) (HPC)
[4] = dose: 50.0 mg/kg/injection, schedule: Q01DX005 (ip), vehicle: saline with Tween-80
[5] = dose: 100.0 mg/kg/injection, schedule: Q01DX005 (ip), vehicle: saline with Tween-80
[6] = dose: 100.0 mg/kg/injection, schedule: Q01DX005 (ip), vehicle: Klucel (hydroxypropylcellulose) (HPC)
[7] = dose: 60.0 mg/kg/injection, schedule: Q01DX005 (ip), vehicle: saline
[8] = dose: 30.0 mg/kg/injection, schedule: Q01DX005 (ip), vehicle: saline
[9] = dose: 100.0 mg/kg/injection, schedule: Q04DX003 (ip), vehicle: saline with Tween-80
[10] = dose: 200.0 mg/kg/injection, schedule: Q04DX003 (ip), vehicle: saline with Tween-80
[11] = dose: 400.0 mg/kg/injection, schedule: Q04DX003 (ip), vehicle: saline with Tween-80

Nc1cc(C(F)(F)F)ccc1S
T/C (dose: 3.0 mg/kg/injection, schedule: Q01DX009 (ip), vehicle: DMSO): 94 % of control
T/C (dose: 6.0 mg/kg/injection, schedule: Q01DX009 (ip), vehicle: DMSO): 103 % of control
T/C (dose: 12.5 mg/kg/injection, schedule: Q01DX009 (ip), vehicle: DMSO): 90 % of control

Cc1[nH]nc2c(=O)n(C)cnc12
T/C (dose: 25.0 mg/kg/injection, schedule: Q01DX005 (ip), vehicle: water): 100 % of control
T/C (dose: 50.0 mg/kg/injection, schedule: Q01DX005 (ip), vehicle: water): 94 % of control
T/C (dose: 100.0 mg/kg/injection, schedule: Q01DX005 (ip), vehicle: water): 92 % of control
T/C (dose: 200.0 mg/kg/injection, schedule: Q01DX005 (ip), vehicle: water): 93 % of control
T/C (dose: 400.0 mg/kg/injection, schedule: Q01DX005 (ip), vehicle: water): 91 % of control

O=C(NC(Cc1cccc(F)c1)C(=O)O)c1ccccc1 (configuration not stated)
T/C (dose: 6.25 mg/kg/injection, schedule: Q01DX009 (ip), vehicle: other): 95 % of control
T/C (dose: 12.5 mg/kg/injection, schedule: Q01DX009 (ip), vehicle: other): 96 % of control

COc1cccc(-c2cc(C(=O)O)c3cc4ccccc4cc3n2)c1OC
T/C [1]: 100 % of control
T/C [2]: 101 % of control
T/C [3]: 100 % of control

COc1cc(N=Nc2cc(CN(C)C)cc3ncccc23)c(OC)cc1N=Nc1ccc([N+](=O)[O-])cc1
T/C (dose: 12.5 mg/kg/injection, schedule: Q01DX005 (ip), vehicle: saline with Tween-80): 98 % of control
T/C (dose: 12.5 mg/kg/injection, schedule: Q01DX009 (ip), vehicle: Klucel (hydroxypropylcellulose) (HPC)): 93 % of control
T/C (dose: 25.0 mg/kg/injection, schedule: Q01DX005 (ip), vehicle: saline with Tween-80): 109 % of control
T/C (dose: 25.0 mg/kg/injection, schedule: Q01DX009 (ip), vehicle: Klucel (hydroxypropylcellulose) (HPC)): 91 % of control
T/C (dose: 38.25 mg/kg/injection, schedule: Q01DX009 (ip), vehicle: Klucel (hydroxypropylcellulose) (HPC)): 102 % of control
T/C [4]: 100 % of control
T/C [1]: 120 % of control and 93 % of control
T/C (dose: 76.5 mg/kg/injection, schedule: Q01DX009 (ip), vehicle: Klucel (hydroxypropylcellulose) (HPC)): 94 % of control
T/C [5]: 107 % of control
T/C [2]: 99 % of control and 115 % of control and 95 % of control
T/C (dose: 153.0 mg/kg/injection, schedule: Q01DX009 (ip), vehicle: Klucel (hydroxypropylcellulose) (HPC)): 95 % of control
T/C (dose: 200.0 mg/kg/injection, schedule: Q01DX005 (ip), vehicle: saline with Tween-80): 107 % of control
T/C [3]: 108 % of control and 93 % of control
T/C (dose: 306.0 mg/kg/injection, schedule: Q01DX009 (ip), vehicle: Klucel (hydroxypropylcellulose) (HPC)): 110 % of control
T/C (dose: 400.0 mg/kg/injection, schedule: Q01DX005 (ip), vehicle: saline with Tween-80): 109 % of control
T/C (dose: 400.0 mg/kg/injection, schedule: Q01DX009 (ip), vehicle: Klucel (hydroxypropylcellulose) (HPC)): 102 % of control and 94 % of control

O=C1OC(c2ccccc2)(c2ccccc2)CC12CC(c1ccccc1)(c1ccccc1)OC2=O
T/C [4]: 91 % of control
T/C [5]: 94 % of control

CC(=O)C1C(=O)C=C(C)OC1=O.CC(=O)C1C(=O)C=C(C)OC1=O.[Hg] (configuration not stated)
T/C (dose: 1.56 mg/kg/injection, schedule: Q01DX009 (ip), vehicle: Klucel (hydroxypropylcellulose) (HPC)): 88 % of control
T/C (dose: 3.12 mg/kg/injection, schedule: Q01DX009 (ip), vehicle: Klucel (hydroxypropylcellulose) (HPC)): 101 % of control
T/C (dose: 6.25 mg/kg/injection, schedule: Q01DX009 (ip), vehicle: Klucel (hydroxypropylcellulose) (HPC)): 91 % of control and 93 % of control

CCOC(=O)c1ccc(NC(=O)Nc2cccc(NC(C)=O)c2)cc1
T/C (dose: 15.0 mg/kg/injection, schedule: Q01DX005 (ip), vehicle: Klucel (hydroxypropylcellulose) (HPC)): 92 % of control
T/C (dose: 30.0 mg/kg/injection, schedule: Q01DX005 (ip), vehicle: Klucel (hydroxypropylcellulose) (HPC)): 91 % of control
T/C (dose: 60.0 mg/kg/injection, schedule: Q01DX005 (ip), vehicle: Klucel (hydroxypropylcellulose) (HPC)): 89 % of control

CC(C)=CCC/C(C)=C/COc1cc(O)c2c(O)c3c(cc2c1)CC(C)(O)CC3=O (configuration not stated)
T/C (dose: 6.25 mg/kg/injection, schedule: Q01DX009 (ip), vehicle: saline + Tween-80 + alcohol): 107 % of control
T/C (dose: 12.5 mg/kg/injection, schedule: Q01DX009 (ip), vehicle: saline + Tween-80 + alcohol): 105 % of control
T/C (dose: 25.0 mg/kg/injection, schedule: Q01DX009 (ip), vehicle: saline + Tween-80 + alcohol): 107 % of control

CCC(C)C(=O)OC1CCC=C2C=CC(C)C(CCC3CC(O)CC(=O)O3)C21 (configuration not stated)
T/C (dose: 15.0 mg/kg/injection, schedule: Q01DX009 (ip), vehicle: saline): 107 % of control
T/C (dose: 30.0 mg/kg/injection, schedule: Q01DX009 (ip), vehicle: saline): 100 % of control
T/C (dose: 60.0 mg/kg/injection, schedule: Q01DX009 (ip), vehicle: saline): 100 % of control

CCCCCCCCC(=O)N1SC(NC(=O)OC)=Nc2ccccc21
T/C (dose: 50.0 mg/kg/injection, schedule: Q01DX005 (ip), vehicle: acetone): 98 % of control
T/C (dose: 100.0 mg/kg/injection, schedule: Q01DX005 (ip), vehicle: acetone): 93 % of control
T/C (dose: 200.0 mg/kg/injection, schedule: Q01DX005 (ip), vehicle: acetone): 111 % of control

CCOC(=O)N1CCN(C(=S)NNC(C)c2cccc[n+]2[O-])CC1 (configuration not stated)
T/C [4]: 99 % of control
T/C [5]: 100 % of control

COC(=O)CCSC(=O)NCCCCCCNC(=O)SCCC(=O)OC
T/C (dose: 50.0 mg/kg/injection, schedule: Q01DX005 (ip), vehicle: Klucel (hydroxypropylcellulose) (HPC)): 98 % of control
T/C [6]: 100 % of control
T/C (dose: 200.0 mg/kg/injection, schedule: Q01DX005 (ip), vehicle: Klucel (hydroxypropylcellulose) (HPC)): 98 % of control

Cc1ccc(C(=O)C(c2nc3n(c2O)/C(=N/C(=O)Nc2ccc(Cl)cc2)N=N3)c2nc3n(c2O)/C(=N/C(=O)Nc2ccc(Cl)cc2)N=N3)cc1
T/C [7]: 99 % of control
T/C (dose: 120.0 mg/kg/injection, schedule: Q01DX005 (ip), vehicle: saline): 97 % of control
T/C (dose: 240.0 mg/kg/injection, schedule: Q01DX005 (ip), vehicle: saline): 87 % of control

CC(C)SSC(=O)N1CCCC1C(=O)O (configuration not stated)
T/C (dose: 15.0 mg/kg/injection, schedule: Q01DX005 (ip), vehicle: saline): 106 % of control
T/C [8]: 98 % of control
T/C [7]: 98 % of control

C1CN1c1nnc(N2CC2)nn1
T/C (dose: 7.5 mg/kg/injection, schedule: Q01DX005 (ip), vehicle: saline): 178 % of control
T/C [8]: 260 % of control

Cc1ccc(CNc2cc(C)ccn2)cc1
T/C (dose: 50.0 mg/kg/injection, schedule: Q01DX009 (ip), vehicle: other): 109 % of control
T/C (dose: 100.0 mg/kg/injection, schedule: Q01DX009 (ip), vehicle: other): 109 % of control

Cc1nsc(Br)c1[N+](=O)[O-]
T/C (dose: 25.0 mg/kg/injection, schedule: Q01DX009 (ip), vehicle: saline): 105 % of control
T/C (dose: 50.0 mg/kg/injection, schedule: Q01DX009 (ip), vehicle: saline): 107 % of control
T/C (dose: 100.0 mg/kg/injection, schedule: Q01DX009 (ip), vehicle: saline): 107 % of control
T/C [9]: 103 % of control
T/C (dose: 200.0 mg/kg/injection, schedule: Q01DX009 (ip), vehicle: saline): 109 % of control
T/C [10]: 108 % of control
T/C [11]: 115 % of control

COC(=O)c1ccc(N=NN(C)CN=[N+]=[N-])cc1
T/C (dose: 12.5 mg/kg/injection, schedule: Q01DX005 (ip), vehicle: Klucel (hydroxypropylcellulose) (HPC)): 106 % of control
T/C (dose: 25.0 mg/kg/injection, schedule: Q01DX005 (ip), vehicle: Klucel (hydroxypropylcellulose) (HPC)): 124 % of control
T/C [6]: 160 % of control and 172 % of control

O=C(/C=C/c1ccc(Cl)cc1Cl)c1ccc(Cl)cc1
T/C [9]: 100 % of control
T/C [10]: 95 % of control
T/C [11]: 90 % of control

Cc1ccc(C)c2c1C(=O)c1c(C)ccc(C)c1C2(O)C#Cc1ccccc1
T/C (dose: 50.0 mg/kg/injection, schedule: Q01DX009 (ip), vehicle: saline with Tween-80): 98 % of control
T/C (dose: 100.0 mg/kg/injection, schedule: Q01DX009 (ip), vehicle: saline with Tween-80): 89 % of control
T/C (dose: 200.0 mg/kg/injection, schedule: Q01DX009 (ip), vehicle: saline with Tween-80): 89 % of control
